How the values were obtained:
Assay in all cases: AUC of viability dose-response curve (% viability x log10 dose units); higher = less sensitive
Details in all cases: 48 h
[1] = tested on: NOMO1
Outline: (§1)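 Library compounds in DMSO were applied for 48 h at 37°C at 11 threefold doses (47 μM to 0.79 nM) to medium-adapted leukemia cells in 1536-well plates holding 500 or 1000 cells/well. Luminescence from CellTiter-Glo One was normalised plate by plate against DMSO and cell-free wells. Area under the curve came from trapezoidal integration of a log-logistic fit, after scaling curves that rose above full viability and discarding those that failed quality control. The fit had four parameters and used log10 doses.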

[2] = tested on: P12-Ichikawa
Outline: as §1

[3] = tested on: SEM cells
Outline: as §1

[4] = RPMI 5 mM glucose + 10% dialyzed FBS

SMILES | AUC of viability dose-response curve ([1]; HPLM + 10% dialyzed FBS) | AUC of viability dose-response curve ([1]; RPMI 5 mM glucose + 10% FBS) | AUC of viability dose-response curve [1, 4] | AUC of viability dose-response curve ([2]; HPLM + 10% dialyzed FBS) | AUC of viability dose-response curve ([2]; RPMI 5 mM glucose + 10% FBS) | AUC of viability dose-response curve [2, 4] | AUC of viability dose-response curve ([3]; HPLM + 10% dialyzed FBS) | AUC of viability dose-response curve ([3]; RPMI 5 mM glucose + 10% FBS) | AUC of viability dose-response curve [3, 4]
OC[C@H]1OCC(O1)[N@@]2C=CC(N)=NC2=O (stereo not given in full) | 465 | 463 | 475 | 458 | 458 | 446 | – | – | –
CC/1=C(/N2[C@H](SC1)[C@H](NC(=O)[C@H](N)\C3=C\C\C=C/C3)C2=O)C(O)=O | 446 | 454 | 461 | 471 | 441 | 440 | 429 | 470 | 448
Cn1c(CNc2ccc(C(=N)N)cc2)nc2cc(C(=O)N(CCC(=O)O)c3ccccn3)ccc21 | 441 | 443 | 440 | 448 | 472 | 465 | 424 | 469 | 451
Cc1cn([C@@H]2O[C@H](CO)[C@@H](O)[C@@H]2F)c(=O)[nH]c1=O | 456 | 460 | 458 | – | – | – | 467 | 437 | 469
COc1cc2ncnc(Nc3cc(Br)c(O)c(Br)c3)c2cc1OC | 477 | 470 | 467 | 473 | 469 | 472 | 458 | 462 | 461
NC/1=N/C2=C([NH]C=N2)C(=S)N1 | 457 | 451 | 402 | 441 | 433 | 409 | 458 | 457 | 345
CC(C)C(=O)Nc1ccc([N+](=O)[O-])c(C(F)(F)F)c1 | 332 | 309 | 320 | 350 | 360 | 378 | 453 | 472 | 461
Cc1cc(C(C)(C)C)c(O)c(C)c1CC1=NCCN1 | 432 | 419 | 422 | 454 | 444 | 429 | 360 | 392 | 400
COc1cc2ncnc(Nc3ccc(F)c(Cl)c3)c2cc1NC(=O)/C=C/CN1CCCCC1 | 408 | 426 | 418 | 433 | 444 | 436 | 417 | 415 | 416
COc1ccc(-c2nc(N3CCOCC3)c3sc(CN(C)c4ncc(C(=O)NO)cn4)cc3n2)cn1 | 156 | 169 | 166 | 163 | 162 | 172 | 136 | 113 | 144
CCC(C)(Oc1ccc(C2(c3ccc(OC(C)(CC)C(=O)O)cc3)CCCCC2)cc1)C(=O)O (stereo not given) | 475 | 456 | 469 | 458 | 459 | 426 | 471 | 454 | 472
C=C(C)[C@H]1Cc2c(ccc3c2O[C@@H]2COc4cc(OC)c(OC)cc4[C@@H]2C3=O)O1 | 389 | 399 | 413 | 376 | 335 | 366 | 370 | 337 | 379
CC(C)C[C@H](NC(=O)[C@H](CCc1ccccc1)NC(=O)CN1CCOCC1)C(=O)N[C@@H](Cc1ccccc1)C(=O)N[C@@H](CC(C)C)C(=O)[C@@]1(C)CO1 | 177 | 152 | 169 | 162 | 139 | 140 | – | – | –
C[S+](=O)([O-])N1CCc2c(-c3cnc(N)nc3)nc(N3CCOCC3)nc21 | 418 | 442 | 404 | 457 | 431 | 440 | – | – | –
CN1\C(=C(\O)C2=CC=CC=C2[S+]1([O-])=O)C(=O)NC3=NC=C(C)S3 | 476 | 449 | 410 | 416 | 392 | 420 | 447 | 427 | 430
CCOC(=O)\C1=C(/C)N\C2=C(C1C3=CC=C(C=C3)C4=CC=CC=C4)\C(=O)CC(C)(C)C2 (stereo not given) | 438 | 465 | 447 | 457 | 457 | 444 | 461 | 451 | 450
C=CC(=O)N1CCC[C@@H](n2nc(-c3ccc(Oc4ccccc4)cc3)c3c(N)ncnc32)C1 | 462 | 446 | 467 | 414 | 458 | 452 | 456 | 443 | 424
C=C[C@H]1CN2CC[C@H]1C[C@H]2[C@H](O)c1ccnc2ccc(OC)cc12 | 464 | 443 | 469 | 458 | 466 | 446 | 472 | 442 | 431
OC1CCC(Nc2ncc3nc(Nc4c(F)cc(F)cc4F)n([C@@H]4CCOC4)c3n2)CC1 (stereo not given in full) | 465 | 446 | 448 | 468 | 465 | 468 | 474 | 452 | 458
O=c1[nH]c2ccccc2n1C1CCN(Cc2ccc(-c3nc4cc5nc[nH]c5cc4nc3-c3ccccc3)cc2)CC1 | 439 | 463 | 474 | 457 | 460 | 443 | – | – | –
Cc1c(NC(=O)OC[C@@H]2COCCN2)cn2ncnc(Nc3ccc4c(cnn4Cc4cccc(F)c4)c3)c12 | 379 | 410 | 397 | 422 | 401 | 417 | – | – | –
N#Cc1c(NC(=O)c2cccc3ccccc23)sc2c1CCCC2 | 345 | 339 | 346 | 325 | 325 | 346 | 318 | 304 | 310
Nc1ncnc2c1c(-c1cnc3[nH]ccc3c1)nn2C1CCCC1 | 364 | 388 | 397 | 379 | 343 | 326 | 356 | 306 | 360
O=C(O)C1=NC(C(=O)O)CC(/C=C/N2c3cc(O)c(OC4OC(CO)C(O)C(O)C4O)cc3CC2C(=O)O)=C1 (stereo not given) | 462 | 465 | 421 | 463 | 450 | 462 | 467 | 466 | 461
Nc1nc(N)c2nc(CNc3ccc(C(=O)NC(CCC(=O)O)C(=O)O)cc3)cnc2n1 (stereo not given) | 344 | 414 | 286 | 283 | 313 | 272 | 290 | 394 | 247

SMILES | AUC of viability dose-response curve ([1]; HPLM + 10% dialyzed FBS) | AUC of viability dose-response curve ([1]; RPMI 5 mM glucose + 10% FBS) | AUC of viability dose-response curve [1, 4] | AUC of viability dose-response curve ([2]; HPLM + 10% dialyzed FBS) | AUC of viability dose-response curve ([2]; RPMI 5 mM glucose + 10% FBS) | AUC of viability dose-response curve [2, 4] | AUC of viability dose-response curve ([3]; HPLM + 10% dialyzed FBS) | AUC of viability dose-response curve ([3]; RPMI 5 mM glucose + 10% FBS) | AUC of viability dose-response curve [3, 4]
C#C[C@]1(O)CC[C@H]2[C@@H]3CCc4cc(O)ccc4[C@H]3CC[C@@]21C | 444 | 442 | 429 | 441 | 418 | 410 | 442 | 440 | 448
C[N]1C=C(C2=C1C=CC=C2)\C3=C(\C(=O)NC3=O)C4=C5CC(CN)CC[N]5C6=C4C=CC=C6 (stereo not given) | 452 | 443 | 460 | 456 | 440 | 443 | 395 | 399 | 420
CC(N)C12CC3CC(CC(C3)C1)C2 (stereo not given) | 453 | 437 | 443 | 449 | 456 | 455 | 468 | 447 | 477
O=C(Nc1ccc(F)c(C(F)(F)F)c1)Nc1nnc(-c2ccncc2)s1 | 456 | 444 | 466 | 469 | 451 | 465 | 467 | 464 | 467
CC(C)NC[C@@H](C(=O)N1CCN(c2ncnc3c2[C@H](C)C[C@H]3O)CC1)c1ccc(Cl)cc1 | 411 | 444 | 419 | 367 | 350 | 362 | 257 | 251 | 249
C/C=C(/C)C(=O)O[C@H]1C(C)=C[C@]23C(=O)[C@@H](C=C(CO)[C@@H](O)[C@]12O)[C@H]1[C@@H](C[C@H]3C)C1(C)C | 324 | 336 | 314 | 397 | 336 | 361 | 392 | 349 | 431
CSCC[C@@H](NC(=O)[C@@H](Cc1ccccc1)NC(=O)CNC(=O)CNC(=O)[C@@H](N)Cc1ccc(O)cc1)C(=O)O | – | – | – | – | – | – | 406 | 389 | 409
CN1CCN(c2ccc([N+](=O)[O-])c3no[n+]([O-])c23)CC1 | 457 | 432 | 421 | 435 | 437 | 436 | 418 | 464 | 424
Cc1cccc(Nc2nc(-c3ccncc3)cs2)c1 | 442 | 466 | 473 | 470 | 469 | 465 | 466 | 464 | 454
C[C@]12CCC(=O)C=C1CC[C@@H]1[C@@H]2CC[C@@]2(C)[C@H]1CC[C@]2(C)O | 440 | 430 | 453 | 465 | 458 | 452 | – | – | –
CNC[C@H](O)c1ccc(O)c(O)c1 | 425 | 402 | 408 | 446 | 448 | 412 | – | – | –
C[C@@H]\1CC(=O)N\N=C1C2=CC=C(NN=C(C#N)C#N)C=C2 | 426 | 410 | 413 | 424 | 417 | 392 | 397 | 368 | 393
CCC(C)(C)c1ccc(CC(C)CN2C[C@@H](C)O[C@@H](C)C2)cc1 (stereo not given in full) | 422 | 368 | 397 | 424 | 417 | 380 | 356 | 369 | 398
CCN1\C=C(\C(O)=O)C(=O)C2=CC=C(C)N=C12 | – | – | – | 466 | 426 | 427 | 397 | 425 | 410
Cc1c(C(=O)NN2CCCCC2)nn(-c2ccc(Cl)cc2Cl)c1-c1ccc(Cl)cc1 | 325 | 303 | 337 | – | – | – | 473 | 455 | 469
CC(C)C(=O)Oc1ccc(CO)cc1[C@H](CCN(C(C)C)C(C)C)c1ccccc1 | – | – | – | 405 | 398 | 381 | 376 | 402 | 433
COc1ncc(-c2ccc3nccc(-c4ccnnc4)c3c2)cc1N[S+](=O)([O-])c1ccc(F)cc1F | 303 | 279 | 297 | 354 | 266 | 310 | – | – | –
COC1=C2OC(=O)\C=C/C2=CC3=C1OC=C3 | 465 | 451 | 466 | 447 | 449 | 426 | 459 | 458 | 456
CC(C)(C)c1[nH]cnc1/C=c1\[nH]c(=O)/c(=C/c2ccccc2)[nH]c1=O | 200 | 129 | 160 | – | – | – | – | – | –
FC1=CC=C(SC/2=N/N3\C=N/C(=O)/C(=C3/C=C2)C4=C(Cl)C=CC=C4Cl)C(=C1)F | 457 | 463 | 466 | 454 | 436 | 452 | 409 | 435 | 398
Cc1cnc(NC(=O)Nc2cc(Br)c(C)cc2OC[C@@H]2CNCCO2)cn1 | 355 | 409 | 365 | 424 | 435 | 393 | 328 | 350 | 326
CN(NC(=O)CC(=O)NN(C)C(=S)c1ccccc1)C(=S)c1ccccc1 | 207 | 197 | 178 | 216 | 204 | 217 | – | – | –
N[C@H](CSC(c1ccccc1)(c1ccccc1)c1ccccc1)C(=O)O | 470 | 466 | 465 | 472 | 437 | 470 | – | – | –
Cc1ccc([S+](=O)([O-])N[C@@H](Cc2ccccc2)C(=O)CCl)cc1 | 463 | 434 | 450 | – | – | – | 427 | 429 | 420
C\C1=C(\C=C(\C#N)C(=O)N1)C2=CC=NC=C2 | 474 | 464 | 468 | – | – | – | 418 | 471 | 460

Source: the supplement of paper PMC11451515
